From ChEMBL document CHEMBL1159020, “Phytotoxins of Ascochyta hyalospora, Causal Agent of Lambsquarters Leaf Spot” (1992)
Activity calls are given as the source filed them. No cut-off for these calls is given here.

Assays:
Chenopodium album [1] = assay: Phytotoxicity against Lamb's quarters assessed as leaf necrotic area at 25 ug by detached leaf assay; format: functional
Sorghum halepense [2] = assay: Phytotoxicity against Johnson grass assessed as leaf necrotic area at 100 ug by detached leaf assay; format: functional
Sorghum halepense [3] = assay: Phytotoxicity against Johnson grass assessed as leaf necrotic area at 50 ug by detached leaf assay; format: functional
Chenopodium album [4] = assay: Phytotoxicity against Lamb's quarters assessed as leaf necrotic area at 50 ug by detached leaf assay; format: functional
Escherichia coli [5] = assay: Antimicrobial activity against Escherichia coli at 1000 ug by antibiotic disk assay; format: functional; conditions: read-out: Diameter of inhibition zone
[6] = tested on: Curtobacterium flaccumfaciens; assay: Antimicrobial activity against Corynebacterium flaccumfaciens at 1000 ug by antibiotic disk assay; format: functional; conditions: read-out: Diameter of inhibition zone
Penicillium chrysogenum [7] = assay: Antimicrobial activity against Penicillium notatum at 500 ug by antibiotic disk assay; format: functional; conditions: read-out: Diameter of inhibition zone
Ambrosia artemisiifolia [8] = assay: Phytotoxicity against rag weed assessed as leaf necrotic area at 100 ug by detached leaf assay; format: functional
Sorghum bicolor [9] = assay: Phytotoxicity against Sorghum bicolor assessed as leaf necrotic area at 100 ug by detached leaf assay; format: functional
Ipomoea [10] = assay: Phytotoxicity against Ipomoea sp. assessed as leaf necrotic area at 25 ug by detached leaf assay; format: functional
Nasturtium officinale [11] = assay: Phytotoxicity against watercress assessed as leaf necrotic area at 25 ug by detached leaf assay; format: functional
[12] = tested on: Agrobacterium tumefaciens; assay: Antimicrobial activity against Agrobacterium tumefaciens at 1000 ug by antibiotic disk assay; format: functional; conditions: read-out: Diameter of inhibition zone
Sorghum halepense [13] = assay: Phytotoxicity against Johnson grass assessed as leaf necrotic area at 25 ug by detached leaf assay; format: functional
Sorghum bicolor [14] = assay: Phytotoxicity against Sorghum bicolor assessed as leaf necrotic area at 50 ug by detached leaf assay; format: functional
Penicillium chrysogenum [15] = assay: Antimicrobial activity against Penicillium notatum at 1000 ug by antibiotic disk assay; format: functional; conditions: read-out: Diameter of inhibition zone
Nasturtium officinale [16] = assay: Phytotoxicity against watercress assessed as leaf necrotic area at 50 ug by detached leaf assay; format: functional
Sida spinosa [17] = assay: Phytotoxicity against Prickly sida assessed as leaf necrotic area at 50 ug by detached leaf assay; format: functional
Datura stramonium [18] = assay: Phytotoxicity against Jimsonweed assessed as leaf necrotic area at 50 ug by detached leaf assay; format: functional
Senna obtusifolia [19] = assay: Phytotoxicity against Sicklepod assessed as leaf necrotic area at 100 ug by detached leaf assay; format: functional
Chenopodium album [20] = assay: Phytotoxicity against Lamb's quarters assessed as leaf necrotic area at 100 ug by detached leaf assay; format: functional
Sida spinosa [21] = assay: Phytotoxicity against Prickly sida assessed as leaf necrotic area at 25 ug by detached leaf assay; format: functional
Senna obtusifolia [22] = assay: Phytotoxicity against Sicklepod assessed as leaf necrotic area at 50 ug by detached leaf assay; format: functional
Colletotrichum acutatum [23] = assay: Antimicrobial activity against Colletotrichum acutatum at 500 ug by antibiotic disk assay; format: functional; conditions: read-out: Diameter of inhibition zone
Chenopodium album [24] = assay: Phytotoxicity against Lamb's quarters assessed as electrolyte leakage at 500 to 1000 ug/ml; format: functional, organism-based
Datura stramonium [25] = assay: Phytotoxicity against Jimsonweed assessed as leaf necrotic area at 25 ug by detached leaf assay; format: functional
Sorghum bicolor [26] = assay: Phytotoxicity against Sorghum bicolor assessed as leaf necrotic area at 25 ug by detached leaf assay; format: functional
Datura stramonium [27] = assay: Phytotoxicity against Jimsonweed assessed as leaf necrotic area at 100 ug by detached leaf assay; format: functional
Poa nemoralis [28] = assay: Phytotoxicity against bent grass assessed as leaf necrotic area at 50 ug by detached leaf assay; format: functional
Aspergillus flavus [29] = assay: Antimicrobial activity against Aspergillus flavus at 1000 ug by antibiotic disk assay; format: functional; conditions: read-out: Diameter of inhibition zone
Nasturtium officinale [30] = assay: Phytotoxicity against Nasturtium officinale assessed as leaf necrotic area at 100 ug by detached leaf assay; format: functional
Colletotrichum acutatum [31] = assay: Antimicrobial activity against Colletotrichum acutatum at 1000 ug by antibiotic disk assay; format: functional; conditions: read-out: Diameter of inhibition zone
Poa nemoralis [32] = assay: Phytotoxicity against bent grass assessed as leaf necrotic area at 25 ug by detached leaf assay; format: functional
[33] = tested on: Agrobacterium tumefaciens; assay: Antimicrobial activity against Agrobacterium tumefaciens at 500 ug by antibiotic disk assay; format: functional; conditions: read-out: Diameter of inhibition zone
Ambrosia artemisiifolia [34] = assay: Phytotoxicity against rag weed assessed as leaf necrotic area at 50 ug by detached leaf assay; format: functional
Ipomoea [35] = assay: Phytotoxicity against Ipomoea sp. assessed as leaf necrotic area at 100 ug by detached leaf assay; format: functional
Ambrosia artemisiifolia [36] = assay: Phytotoxicity against rag weed assessed as leaf necrotic area at 25 ug by detached leaf assay; format: functional
[37] = tested on: Curtobacterium flaccumfaciens; assay: Antimicrobial activity against Corynebacterium flaccumfaciens at 500 ug by antibiotic disk assay; format: functional; conditions: read-out: Diameter of inhibition zone
Sida spinosa [38] = assay: Phytotoxicity against Prickly sida assessed as leaf necrotic area at 100 ug by detached leaf assay; format: functional
[39] = tested on: Pectobacterium carotovorum; assay: Antimicrobial activity against Erwinia carotovora at 500 ug by antibiotic disk assay; format: functional; conditions: read-out: Diameter of inhibition zone
Escherichia coli [40] = assay: Antimicrobial activity against Escherichia coli at 500 ug by antibiotic disk assay; format: functional; conditions: read-out: Diameter of inhibition zone
Ipomoea [41] = assay: Phytotoxicity against Ipomoea sp. assessed as leaf necrotic area at 50 ug by detached leaf assay; format: functional
[42] = tested on: Pectobacterium carotovorum; assay: Antimicrobial activity against Erwinia carotovora at 1000 ug by antibiotic disk assay; format: functional; conditions: read-out: Diameter of inhibition zone
Sorghum bicolor [43] = assay: Phytotoxicity against Sorghum bicolor assessed as inhibition of root growth at 1000 ug after 24 hrs root growth assay; format: functional, organism-based
Senna obtusifolia [44] = assay: Phytotoxicity against Sicklepod assessed as leaf necrotic area at 25 ug by detached leaf assay; format: functional
Aspergillus flavus [45] = assay: Antimicrobial activity against Aspergillus flavus at 500 ug by antibiotic disk assay; format: functional; conditions: read-out: Diameter of inhibition zone
Ipomoea [46] = assay: Phytotoxicity against Ipomoea sp. assessed as leaf necrotic area at 10 ug by detached leaf assay; format: functional
Chenopodium album [47] = assay: Phytotoxicity against Lamb's quarters assessed as leaf necrotic area at 10 ug by detached leaf assay; format: functional
Senna obtusifolia [48] = assay: Phytotoxicity against Sicklepod assessed as leaf necrotic area at 10 ug by detached leaf assay; format: functional
Nasturtium officinale [49] = assay: Phytotoxicity against watercress assessed as leaf necrotic area at 10 ug by detached leaf assay; format: functional
Datura stramonium [50] = assay: Phytotoxicity against Jimsonweed assessed as leaf necrotic area at 10 ug by detached leaf assay; format: functional
Sorghum halepense [51] = assay: Phytotoxicity against Johnson grass assessed as leaf necrotic area at 10 ug by detached leaf assay; format: functional
Sorghum bicolor [52] = assay: Phytotoxicity against Sorghum bicolor assessed as leaf necrotic area at 10 ug by detached leaf assay; format: functional
Ambrosia artemisiifolia [53] = assay: Phytotoxicity against rag weed assessed as leaf necrotic area at 10 ug by detached leaf assay; format: functional
Poa nemoralis [54] = assay: Phytotoxicity against bent grass assessed as leaf necrotic area at 10 ug by detached leaf assay; format: functional
Sida spinosa [55] = assay: Phytotoxicity against Prickly sida assessed as leaf necrotic area at 10 ug by detached leaf assay; format: functional

CCC(C)c1occ2c(=O)c(C(=O)O)c(O)cc-2c1C (configuration not stated) [ASCOCHYTINE]
Activity (Chenopodium album [1]): 5 mm2
Activity (Sorghum halepense [2]): 24 mm2
Activity (Sorghum halepense [3]): 10 mm2
Activity (Chenopodium album [4]): 11 mm2
zone of inhibition at 1000 µg/disc (Escherichia coli [5]): 10 mm
zone of inhibition at 1000 µg/disc [6]: 42 mm
zone of inhibition at 500 µg/disc (Penicillium chrysogenum [7]): 0 mm
Activity (Ambrosia artemisiifolia [8]): 8 mm2
Activity (Sorghum bicolor [9]): 28 mm2
Activity (Ipomoea [10]): 8 mm2
Activity (Nasturtium officinale [11]): 2 mm2
zone of inhibition at 1000 µg/disc [12]: 35 mm
Activity (Sorghum halepense [13]): 10 mm2
Activity (Sorghum bicolor [14]): 18 mm2
zone of inhibition at 1000 µg/disc (Penicillium chrysogenum [15]): 10 mm
Activity (Nasturtium officinale [16]): 5 mm2
Activity (Sida spinosa [17]): 20 mm2
Activity (Datura stramonium [18]): 15 mm2
Activity (Senna obtusifolia [19]): 16 mm2
Activity (Chenopodium album [20]): 19 mm2
Activity (Sida spinosa [21]): 6 mm2
Activity (Senna obtusifolia [22]): 13 mm2
zone of inhibition at 500 µg/disc (Colletotrichum acutatum [23]): 18 mm
Activity (Chenopodium album [24]): Active
Activity (Datura stramonium [25]): 11 mm2
Activity (Sorghum bicolor [26]): 12 mm2
Activity (Datura stramonium [27]): 22 mm2
Activity (Poa nemoralis [28]): 8 mm2
zone of inhibition at 1000 µg/disc (Aspergillus flavus [29]): 0 mm
Activity (Nasturtium officinale [30]): 20 mm2
zone of inhibition at 1000 µg/disc (Colletotrichum acutatum [31]): 20 mm
Activity (Poa nemoralis [32]): 7 mm2
zone of inhibition at 500 µg/disc [33]: 26 mm
Activity (Ambrosia artemisiifolia [34]): 5 mm2
Activity (Ipomoea [35]): 9 mm2
Activity (Ambrosia artemisiifolia [36]): 5 mm2
zone of inhibition at 500 µg/disc [37]: 30 mm
Activity (Sida spinosa [38]): 35 mm2
zone of inhibition at 500 µg/disc [39]: 0 mm
zone of inhibition at 500 µg/disc (Escherichia coli [40]): 8 mm
Activity (Ipomoea [41]): 9 mm2
zone of inhibition at 1000 µg/disc [42]: 0 mm
Activity (Sorghum bicolor [43]): Active
Activity (Senna obtusifolia [44]): 9 mm2
zone of inhibition at 500 µg/disc (Aspergillus flavus [45]): 0 mm

CCC(C)c1oc(CC(C)O)cc(=O)c1C (configuration not stated) [HYALOPYRONE]
Activity (Sorghum halepense [2]): 15 mm2
Activity (Sorghum halepense [3]): 11 mm2
Activity (Chenopodium album [4]): 4 mm2
zone of inhibition at 500 µg/disc (Penicillium chrysogenum [7]): 12 mm
Activity (Ambrosia artemisiifolia [8]): 18 mm2
Activity (Sorghum bicolor [9]): 23 mm2
Activity (Sorghum bicolor [14]): 18 mm2
Activity (Nasturtium officinale [16]): 5 mm2
Activity (Sida spinosa [17]): 7 mm2
Activity (Datura stramonium [18]): 0 mm2
Activity (Senna obtusifolia [19]): 4 mm2
Activity (Chenopodium album [20]): 5 mm2
Activity (Senna obtusifolia [22]): 3 mm2
zone of inhibition at 500 µg/disc (Colletotrichum acutatum [23]): 16 mm
Activity (Datura stramonium [27]): 3 mm2
Activity (Poa nemoralis [28]): 6 mm2
Activity (Nasturtium officinale [30]): 7 mm2
zone of inhibition at 500 µg/disc [33]: 0 mm
Activity (Ambrosia artemisiifolia [34]): 10 mm2
Activity (Ipomoea [35]): 8 mm2
zone of inhibition at 500 µg/disc [37]: 12 mm
Activity (Sida spinosa [38]): 13 mm2
zone of inhibition at 500 µg/disc [39]: 0 mm
zone of inhibition at 500 µg/disc (Escherichia coli [40]): 0 mm
Activity (Ipomoea [41]): 5 mm2
zone of inhibition at 500 µg/disc (Aspergillus flavus [45]): 10 mm

C[C@H]1OC(=O)/C=C\C(=O)/C=C/[C@H]2O[C@@H]12 [PYRENOLIDE A]
Activity (Ipomoea [46]): 0 mm2
Activity (Chenopodium album [1]): 5 mm2
Activity (Chenopodium album [47]): 2 mm2
Activity (Sorghum halepense [3]): 18 mm2
Activity (Chenopodium album [4]): 13 mm2
zone of inhibition at 1000 µg/disc (Escherichia coli [5]): 0 mm
zone of inhibition at 1000 µg/disc [6]: 34 mm
zone of inhibition at 500 µg/disc (Penicillium chrysogenum [7]): 16 mm
Activity (Senna obtusifolia [48]): 0 mm2
Activity (Ipomoea [10]): 0 mm2
Activity (Nasturtium officinale [11]): 0 mm2
Activity (Nasturtium officinale [49]): 0 mm2
zone of inhibition at 1000 µg/disc [12]: 22 mm
Activity (Sorghum halepense [13]): 7 mm2
Activity (Sorghum bicolor [14]): 10 mm2
zone of inhibition at 1000 µg/disc (Penicillium chrysogenum [15]): 22 mm
Activity (Nasturtium officinale [16]): 1 mm2
Activity (Sida spinosa [17]): 4 mm2
Activity (Datura stramonium [50]): 0 mm2
Activity (Datura stramonium [18]): 2 mm2
Activity (Sida spinosa [21]): 0 mm2
Activity (Senna obtusifolia [22]): 2 mm2
zone of inhibition at 500 µg/disc (Colletotrichum acutatum [23]): 21 mm
Activity (Chenopodium album [24]): Active
Activity (Datura stramonium [25]): 0 mm2
Activity (Sorghum bicolor [26]): 8 mm2
Activity (Poa nemoralis [28]): 0 mm2
zone of inhibition at 1000 µg/disc (Aspergillus flavus [29]): 0 mm
zone of inhibition at 1000 µg/disc (Colletotrichum acutatum [31]): 32 mm
Activity (Poa nemoralis [32]): 0 mm2
Activity (Sorghum halepense [51]): 3 mm2
zone of inhibition at 500 µg/disc [33]: 4 mm
Activity (Ambrosia artemisiifolia [34]): 6 mm2
Activity (Sorghum bicolor [52]): 2 mm2
Activity (Ambrosia artemisiifolia [36]): 3 mm2
Activity (Ambrosia artemisiifolia [53]): 0 mm2
Activity (Poa nemoralis [54]): 0 mm2
zone of inhibition at 500 µg/disc [37]: 22 mm
zone of inhibition at 500 µg/disc [39]: 0 mm
zone of inhibition at 500 µg/disc (Escherichia coli [40]): 0 mm
Activity (Ipomoea [41]): 3 mm2
zone of inhibition at 1000 µg/disc [42]: 0 mm
Activity (Sorghum bicolor [43]): Active
Activity (Sida spinosa [55]): 0 mm2
Activity (Senna obtusifolia [44]): 0 mm2
zone of inhibition at 500 µg/disc (Aspergillus flavus [45]): 0 mm
